The results in this text go back to paper PMC4854315, “Discovery of a novel allosteric inhibitor-binding site in ERK5: comparison with the canonical kinase hinge ATP-binding site” (Acta Crystallographica. Section D, Structural Biology, 2016).

Common to all, as to assay: Z'-LYTE kinase panel
Common to all, as to assay type: biochemical

The target of one assay is T1, AURKC (Aurora C) (Homo sapiens, UniProt Q9UQB9).
T1 construct: purchased ThermoFisher (SelectScreen, Z'-LYTE)
T1 sequence (Q9UQB9 1-309): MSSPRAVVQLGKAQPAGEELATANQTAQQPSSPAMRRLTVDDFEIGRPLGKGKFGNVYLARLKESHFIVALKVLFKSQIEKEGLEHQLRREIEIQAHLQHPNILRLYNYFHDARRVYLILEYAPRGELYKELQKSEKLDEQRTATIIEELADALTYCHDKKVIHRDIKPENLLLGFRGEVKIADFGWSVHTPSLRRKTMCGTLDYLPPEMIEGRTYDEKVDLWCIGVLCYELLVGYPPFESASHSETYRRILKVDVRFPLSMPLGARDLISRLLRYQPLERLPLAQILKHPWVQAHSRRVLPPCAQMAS
Summed up:
(§1)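 Screened at 10 µM against a 225-kinase panel; the Z′-LYTE standard assay gave percentage inhibition values.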

The target of a further assay is T2, EPHA8 (Homo sapiens, UniProt P29322).
T2 construct: purchased ThermoFisher (SelectScreen, Z'-LYTE)
T2 sequence (P29322 28-1005): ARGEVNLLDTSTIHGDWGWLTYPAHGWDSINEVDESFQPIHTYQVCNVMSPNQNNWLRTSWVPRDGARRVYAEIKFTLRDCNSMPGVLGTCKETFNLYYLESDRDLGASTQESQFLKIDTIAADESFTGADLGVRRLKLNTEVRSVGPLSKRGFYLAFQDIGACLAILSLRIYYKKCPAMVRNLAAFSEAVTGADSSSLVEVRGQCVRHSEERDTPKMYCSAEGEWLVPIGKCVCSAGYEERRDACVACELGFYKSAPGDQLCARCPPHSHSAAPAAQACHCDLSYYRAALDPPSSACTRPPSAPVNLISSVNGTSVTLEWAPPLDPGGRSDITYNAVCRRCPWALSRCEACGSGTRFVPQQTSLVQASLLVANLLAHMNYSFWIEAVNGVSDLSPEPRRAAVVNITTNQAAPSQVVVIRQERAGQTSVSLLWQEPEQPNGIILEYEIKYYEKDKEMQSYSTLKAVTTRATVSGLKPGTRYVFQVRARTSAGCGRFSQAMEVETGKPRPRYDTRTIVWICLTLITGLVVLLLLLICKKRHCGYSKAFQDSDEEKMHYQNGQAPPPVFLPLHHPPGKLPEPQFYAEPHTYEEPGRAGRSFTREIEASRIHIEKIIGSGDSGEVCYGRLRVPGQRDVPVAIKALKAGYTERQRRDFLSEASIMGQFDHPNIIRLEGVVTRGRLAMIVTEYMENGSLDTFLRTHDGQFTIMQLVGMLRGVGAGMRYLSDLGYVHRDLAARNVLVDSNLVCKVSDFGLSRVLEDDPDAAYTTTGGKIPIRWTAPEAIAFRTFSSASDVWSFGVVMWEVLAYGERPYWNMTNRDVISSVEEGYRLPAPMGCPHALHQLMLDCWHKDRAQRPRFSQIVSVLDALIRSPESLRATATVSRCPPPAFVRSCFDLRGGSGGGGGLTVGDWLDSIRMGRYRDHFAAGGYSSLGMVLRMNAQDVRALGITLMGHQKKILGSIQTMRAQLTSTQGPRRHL
Summed up: as §1

The target of another assay is T3, JAK3 (Homo sapiens, UniProt P52333).
T3 construct: purchased ThermoFisher (SelectScreen, Z'-LYTE)
T3 sequence (P52333 1-1124): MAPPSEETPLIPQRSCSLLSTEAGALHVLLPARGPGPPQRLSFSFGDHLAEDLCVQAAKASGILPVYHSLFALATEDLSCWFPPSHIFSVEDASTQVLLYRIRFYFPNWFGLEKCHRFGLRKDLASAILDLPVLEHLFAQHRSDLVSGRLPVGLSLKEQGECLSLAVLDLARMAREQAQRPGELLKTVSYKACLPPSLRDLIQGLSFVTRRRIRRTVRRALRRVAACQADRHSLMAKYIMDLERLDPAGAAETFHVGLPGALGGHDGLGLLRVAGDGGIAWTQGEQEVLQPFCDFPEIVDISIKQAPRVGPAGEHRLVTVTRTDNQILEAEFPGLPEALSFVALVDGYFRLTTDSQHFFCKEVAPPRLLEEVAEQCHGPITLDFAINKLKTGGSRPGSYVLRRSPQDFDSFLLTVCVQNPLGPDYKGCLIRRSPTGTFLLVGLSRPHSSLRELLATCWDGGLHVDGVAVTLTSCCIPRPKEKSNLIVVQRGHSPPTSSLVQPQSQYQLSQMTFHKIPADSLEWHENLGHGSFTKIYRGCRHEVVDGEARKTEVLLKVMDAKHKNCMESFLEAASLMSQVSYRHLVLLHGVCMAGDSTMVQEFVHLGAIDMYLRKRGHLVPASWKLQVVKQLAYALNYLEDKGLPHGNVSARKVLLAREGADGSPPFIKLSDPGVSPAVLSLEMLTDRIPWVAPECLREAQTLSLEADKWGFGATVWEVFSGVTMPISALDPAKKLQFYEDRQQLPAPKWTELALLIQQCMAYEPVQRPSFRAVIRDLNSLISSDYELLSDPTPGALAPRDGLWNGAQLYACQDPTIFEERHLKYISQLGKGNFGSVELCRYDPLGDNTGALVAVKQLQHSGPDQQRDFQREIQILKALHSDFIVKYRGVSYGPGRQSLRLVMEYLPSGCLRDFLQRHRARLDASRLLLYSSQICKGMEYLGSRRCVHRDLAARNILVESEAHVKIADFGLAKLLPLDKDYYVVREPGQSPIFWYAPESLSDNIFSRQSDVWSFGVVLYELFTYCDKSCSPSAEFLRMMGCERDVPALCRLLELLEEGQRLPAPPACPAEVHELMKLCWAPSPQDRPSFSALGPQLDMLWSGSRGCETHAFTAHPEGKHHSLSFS
Summed up:
as §1

The target in another assay is T4, MAP3K8 (COT) (Homo sapiens, UniProt P41279).
T4 construct: purchased ThermoFisher (SelectScreen, Z'-LYTE)
The following applies: 10 µM compound; ATP 100. Summed up:
as §1

The next assay concerns the target T5, MAP4K5 (KHS1) (Homo sapiens, UniProt Q9Y4K4).
T5 construct: purchased ThermoFisher (SelectScreen, Z'-LYTE)
Summed up: as §1

A further assay deals with T6, MST1R (RON) (Homo sapiens, UniProt Q04912).
T6 construct: purchased ThermoFisher (SelectScreen, Z'-LYTE)
Summed up:
as §1

A further assay has as its target T7, PIM2 (Homo sapiens, UniProt Q9P1W9).
T7 construct: purchased ThermoFisher (SelectScreen, Z'-LYTE)
Summed up:
as §1

A further assay has as its target T8, PRKACA (PKA) (Homo sapiens, UniProt P17612).
T8 construct: purchased ThermoFisher (SelectScreen, Z'-LYTE)
Summed up: as §1

In the next assay the target is T9, RPS6KA3 (RSK2) (Homo sapiens, UniProt P51812).
T9 construct: purchased ThermoFisher (SelectScreen, Z'-LYTE)
Summed up:
as §1

In another assay the target is T10, RPS6KB1 (p70S6K) (Homo sapiens, UniProt P23443).
T10 construct: purchased ThermoFisher (SelectScreen, Z'-LYTE)
Summed up: as §1

T9 sequence (P51812 whole entry): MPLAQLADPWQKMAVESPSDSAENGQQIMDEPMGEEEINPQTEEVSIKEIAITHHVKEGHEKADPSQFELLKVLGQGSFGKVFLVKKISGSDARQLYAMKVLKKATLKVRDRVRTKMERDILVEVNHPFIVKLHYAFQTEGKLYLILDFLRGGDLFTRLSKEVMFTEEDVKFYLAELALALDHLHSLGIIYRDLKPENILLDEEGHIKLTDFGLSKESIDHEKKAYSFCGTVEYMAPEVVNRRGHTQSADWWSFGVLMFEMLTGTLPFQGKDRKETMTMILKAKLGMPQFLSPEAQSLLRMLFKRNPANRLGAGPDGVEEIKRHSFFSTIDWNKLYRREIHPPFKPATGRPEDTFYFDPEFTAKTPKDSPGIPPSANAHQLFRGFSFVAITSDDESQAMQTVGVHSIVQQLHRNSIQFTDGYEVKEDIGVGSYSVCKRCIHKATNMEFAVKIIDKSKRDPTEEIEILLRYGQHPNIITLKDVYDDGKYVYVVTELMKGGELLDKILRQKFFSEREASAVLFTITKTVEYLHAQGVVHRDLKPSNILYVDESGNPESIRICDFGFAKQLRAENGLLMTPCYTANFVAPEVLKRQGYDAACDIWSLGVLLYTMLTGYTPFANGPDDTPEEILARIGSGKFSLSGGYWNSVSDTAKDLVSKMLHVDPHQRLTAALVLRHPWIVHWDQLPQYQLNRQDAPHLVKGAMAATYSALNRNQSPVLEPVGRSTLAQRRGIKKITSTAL
T7 sequence (Q9P1W9 whole entry): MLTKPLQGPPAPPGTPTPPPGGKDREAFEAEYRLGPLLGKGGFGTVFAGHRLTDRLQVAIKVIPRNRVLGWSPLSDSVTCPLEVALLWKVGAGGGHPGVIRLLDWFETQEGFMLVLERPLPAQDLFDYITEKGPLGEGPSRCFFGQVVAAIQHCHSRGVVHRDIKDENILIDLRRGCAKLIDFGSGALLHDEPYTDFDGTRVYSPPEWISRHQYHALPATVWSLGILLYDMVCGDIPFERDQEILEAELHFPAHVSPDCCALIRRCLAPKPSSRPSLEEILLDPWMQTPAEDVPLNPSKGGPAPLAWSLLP
T6 sequence (Q04912 25-1400): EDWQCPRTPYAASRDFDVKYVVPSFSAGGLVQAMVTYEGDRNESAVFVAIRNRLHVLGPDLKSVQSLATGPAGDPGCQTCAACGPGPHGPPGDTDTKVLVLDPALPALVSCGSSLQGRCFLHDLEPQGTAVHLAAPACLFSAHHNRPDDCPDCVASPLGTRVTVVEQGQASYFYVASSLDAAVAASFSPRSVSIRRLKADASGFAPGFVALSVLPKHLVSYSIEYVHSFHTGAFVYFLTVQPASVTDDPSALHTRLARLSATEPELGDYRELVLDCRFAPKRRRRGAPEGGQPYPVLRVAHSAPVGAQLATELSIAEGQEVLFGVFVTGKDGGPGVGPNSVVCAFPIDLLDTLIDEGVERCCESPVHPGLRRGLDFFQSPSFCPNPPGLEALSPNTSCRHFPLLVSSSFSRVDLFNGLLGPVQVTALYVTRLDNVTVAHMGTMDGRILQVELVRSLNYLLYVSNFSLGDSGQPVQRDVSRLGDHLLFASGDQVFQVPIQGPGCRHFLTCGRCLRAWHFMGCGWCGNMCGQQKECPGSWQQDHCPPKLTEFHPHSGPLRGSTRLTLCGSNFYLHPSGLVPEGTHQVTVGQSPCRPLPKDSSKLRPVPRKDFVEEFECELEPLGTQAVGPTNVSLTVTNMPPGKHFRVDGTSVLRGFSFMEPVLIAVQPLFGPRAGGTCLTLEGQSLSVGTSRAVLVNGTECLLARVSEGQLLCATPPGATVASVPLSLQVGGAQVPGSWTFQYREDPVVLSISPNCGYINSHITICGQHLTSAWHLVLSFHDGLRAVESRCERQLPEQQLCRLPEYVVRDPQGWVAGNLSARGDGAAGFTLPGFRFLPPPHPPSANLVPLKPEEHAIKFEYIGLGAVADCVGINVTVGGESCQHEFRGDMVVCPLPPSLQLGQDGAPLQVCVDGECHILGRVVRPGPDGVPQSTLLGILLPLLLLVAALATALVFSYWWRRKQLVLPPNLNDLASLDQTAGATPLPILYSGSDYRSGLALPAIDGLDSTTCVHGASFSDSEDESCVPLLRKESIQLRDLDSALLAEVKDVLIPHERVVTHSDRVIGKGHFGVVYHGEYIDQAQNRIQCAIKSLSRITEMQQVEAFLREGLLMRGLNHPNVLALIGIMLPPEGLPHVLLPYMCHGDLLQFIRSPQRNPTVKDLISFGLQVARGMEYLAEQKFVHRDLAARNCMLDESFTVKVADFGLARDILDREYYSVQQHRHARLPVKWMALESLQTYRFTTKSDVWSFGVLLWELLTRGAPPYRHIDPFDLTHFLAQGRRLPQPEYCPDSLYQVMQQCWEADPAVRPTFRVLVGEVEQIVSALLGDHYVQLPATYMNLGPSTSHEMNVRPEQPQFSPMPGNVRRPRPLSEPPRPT
T10 sequence (P23443 whole entry): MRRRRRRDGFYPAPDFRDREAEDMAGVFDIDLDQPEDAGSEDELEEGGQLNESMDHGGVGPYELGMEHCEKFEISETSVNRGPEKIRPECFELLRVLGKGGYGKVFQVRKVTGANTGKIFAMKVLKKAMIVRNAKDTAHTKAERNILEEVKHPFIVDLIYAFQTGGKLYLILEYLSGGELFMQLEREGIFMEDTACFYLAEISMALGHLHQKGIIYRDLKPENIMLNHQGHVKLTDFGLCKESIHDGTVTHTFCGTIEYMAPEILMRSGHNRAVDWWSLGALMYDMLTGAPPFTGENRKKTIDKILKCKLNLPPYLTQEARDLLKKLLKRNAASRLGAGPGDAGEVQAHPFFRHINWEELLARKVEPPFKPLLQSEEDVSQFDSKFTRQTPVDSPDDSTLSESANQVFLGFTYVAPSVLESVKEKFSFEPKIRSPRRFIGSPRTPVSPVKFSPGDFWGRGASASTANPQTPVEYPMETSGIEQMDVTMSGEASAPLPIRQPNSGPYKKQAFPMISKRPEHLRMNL
T5 sequence (Q9Y4K4 whole entry): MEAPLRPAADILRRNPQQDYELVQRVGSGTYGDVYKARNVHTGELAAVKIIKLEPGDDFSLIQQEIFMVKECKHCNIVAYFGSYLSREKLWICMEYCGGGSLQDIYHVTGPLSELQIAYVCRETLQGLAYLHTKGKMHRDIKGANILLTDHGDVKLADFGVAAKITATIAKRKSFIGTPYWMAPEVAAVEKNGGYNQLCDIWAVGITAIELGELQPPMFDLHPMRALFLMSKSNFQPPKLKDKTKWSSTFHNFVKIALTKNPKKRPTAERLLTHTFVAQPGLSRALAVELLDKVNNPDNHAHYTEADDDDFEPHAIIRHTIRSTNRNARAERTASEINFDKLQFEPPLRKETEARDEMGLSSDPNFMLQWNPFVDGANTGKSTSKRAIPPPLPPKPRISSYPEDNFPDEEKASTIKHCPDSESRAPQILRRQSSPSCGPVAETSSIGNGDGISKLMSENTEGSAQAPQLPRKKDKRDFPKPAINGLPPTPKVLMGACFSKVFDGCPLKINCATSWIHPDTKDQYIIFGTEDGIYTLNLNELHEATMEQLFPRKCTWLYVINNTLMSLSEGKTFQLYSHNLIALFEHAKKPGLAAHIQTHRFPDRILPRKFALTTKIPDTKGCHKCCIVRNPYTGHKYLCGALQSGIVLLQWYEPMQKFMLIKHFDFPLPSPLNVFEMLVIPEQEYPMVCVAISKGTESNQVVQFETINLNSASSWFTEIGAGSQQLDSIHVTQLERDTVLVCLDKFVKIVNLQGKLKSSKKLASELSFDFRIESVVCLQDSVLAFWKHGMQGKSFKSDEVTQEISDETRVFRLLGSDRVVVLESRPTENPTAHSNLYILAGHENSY
T4 sequence (P41279 whole entry): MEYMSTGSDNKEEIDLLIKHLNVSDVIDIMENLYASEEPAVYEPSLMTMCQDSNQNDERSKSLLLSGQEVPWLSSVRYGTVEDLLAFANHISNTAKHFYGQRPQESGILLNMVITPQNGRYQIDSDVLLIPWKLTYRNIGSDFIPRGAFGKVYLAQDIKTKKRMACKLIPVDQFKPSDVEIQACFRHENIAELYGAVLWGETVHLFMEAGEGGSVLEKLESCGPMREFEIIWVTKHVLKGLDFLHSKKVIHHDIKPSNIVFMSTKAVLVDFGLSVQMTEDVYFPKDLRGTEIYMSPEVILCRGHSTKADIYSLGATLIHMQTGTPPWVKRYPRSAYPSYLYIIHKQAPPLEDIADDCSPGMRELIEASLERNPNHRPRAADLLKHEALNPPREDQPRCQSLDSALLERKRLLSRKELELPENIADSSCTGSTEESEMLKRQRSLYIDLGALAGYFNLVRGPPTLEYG

For `Cc1ncc(-c2nc(Nc3ccc(C(=O)NCCN4CCCCC4)cc3)ncc2F)n1C(C)C` [Compound 3], the inhibition at 10 µM on AURKC (Aurora C) is 89%; against EPHA8, 50%; at JAK3, 88%; against MAP3K8 (COT), 89%; at MAP4K5 (KHS1), 97%; against MST1R (RON) it was 67%. Besides, the inhibition at 10 µM amounted to 40% against PIM2, 74% on PRKACA (PKA), 81% on RPS6KA3 (RSK2) and 87% against RPS6KB1 (p70S6K).
For `Cc1cc(Nc2nc(N)nn2C(=O)NC(C)C)ccc1Cl` [Compound 5], the inhibition at 10 µM at AURKC (Aurora C) is 54%; against EPHA8 it was 0.0057%; on JAK3, 45%; on MAP3K8 (COT) it was -2.72%; on MAP4K5 (KHS1), 65%; against MST1R (RON), 1.17%. Besides, the inhibition at 10 µM was -13% on PIM2, 1.5% against PRKACA (PKA), 37% at RPS6KA3 (RSK2) and 7% on RPS6KB1 (p70S6K).
As for “XMD8-92 [Compound 2, reference compound]”, on AURKC (Aurora C) (10 µM compound, ATP Km app), the “AURKC (Aurora C) % Inhibition” value is reported as 34%. Further, on EPHA8 (10 µM compound, ATP Km app), the “EPHA8 % Inhibition” value was determined as 23%. Also, at JAK3 (10 µM compound, ATP Km app), the “JAK3 % Inhibition” value turned out to be 80%. For the same molecule, on MAP3K8 (COT), the “MAP3K8 (COT) % Inhibition” value stood at 3.36%. Moreover, the “MAP4K5 (KHS1) % Inhibition” value at MAP4K5 (KHS1) (10 µM compound, ATP Km app) came out at 85%. The “MST1R (RON) % Inhibition” value at MST1R (RON) (10 µM compound, ATP Km app) stood at 37%. For the same molecule, at PIM2 (10 µM compound, ATP Km app), the “PIM2 % Inhibition” value was 22%. In addition, the “PRKACA (PKA) % Inhibition” value on PRKACA (PKA) (10 µM compound, ATP Km app) was 56%. Also, the “RPS6KA3 (RSK2) % Inhibition” value at RPS6KA3 (RSK2) (10 µM compound, ATP Km app) is 98%. Also, at RPS6KB1 (p70S6K) (10 µM compound, ATP Km app), the “RPS6KB1 (p70S6K) % Inhibition” value is 5%.

For orientation: inhibition means the change of the read-out against control, counted positive when it falls.
